Seven molecules from ChEMBL document CHEMBL1121567, “Synthesis of some 5-phenylhexahydroazepino[4,5-b]indoles as potential neuroleptic agents” (1980) can be followed below.

One assay concerns Mus musculus. Briefly: Effective dose to reverse tetrabenazine ptosis in mouse when administered po. It is filed as functional.
The next assay deals with Rattus norvegicus. The assay can be described thus: Effective dose to block muricidal behavior in rat when administered ip. It is filed as functional.

On to `CN1CCc2c(n(C)c3ccccc23)C(c2ccccc2)C1` (centres undefined), for which the values for the ED50 in the assay on Mus musculus and in the assay on Rattus norvegicus were greater than 30 mg/kg and greater than 20 mg/kg, respectively.
As to `CN1CCc2c([nH]c3ccccc23)C(c2ccccc2)C1` (centres undefined), the figures for the median effective dose (ED50) with Mus musculus and in the assay with Rattus norvegicus were 1 mg/kg and greater than 10 mg/kg, respectively.
The like results for `c1ccc(C2CNCCc3c2[nH]c2ccccc32)cc1` (centres undefined) were, in that order, greater than 30 mg/kg and 2.1 mg/kg.
The like results for `Cn1c2c(c3ccccc31)CCNCC2c1ccccc1` (centres undefined) were, in that order, greater than 30 mg/kg and greater than 10 mg/kg.
For `COc1ccc2[nH]c3c(c2c1)CCN(C)CC3c1ccccc1` (centres undefined), the ED50 (usually the midpoint of the dose-response relation) with Mus musculus was 1.9 mg/kg; in the assay on Rattus norvegicus it was greater than 10 mg/kg.
The like results for `COc1ccc2[nH]c3c(c2c1)CCNCC3c1ccccc1` (centres undefined) were, in that order, greater than 30 mg/kg and 12.2 mg/kg.
For `CN(C)CCCN1c2ccccc2CCc2ccccc21` [IMIPRAMINE], in that order: 2 mg/kg and 20.2 mg/kg.
